Experimental data reported in US10323027B2, “2,3-dihydro-4H-1,3-benzoxazin-4-one derivatives as modulators of cholinergic muscarinic M1 receptor” (Takeda Pharmaceutical Company Limited, priority 2015, dated 2019).
Structures can show the parent of a compound that is named as a salt.

How the values were obtained:
[1] = biological target: T1, human M1 receptor (hCHRM1) (Homo sapiens, UniProt P11229); assay: Measurement of M1 receptor positive allosteric modulator (M1PAM) activity, Ca2+ fluorescence by FDSS/μ cell (Experimental Example 2); assay type: cell-based; conditions: for activity (%) at 10 μM: 10 μM test compound, 100% = acetylcholine 1 μM, 0% = DMSO; for EC50: inflection point of concentration-dependent curve, in presence of acetylcholine at EC20 (0.8-1.0 nM), CHO-K1 cells expressing hCHRM1, read-out: IP value
T1 construct: expressed in transfected cells
T1 sequence (P11229 1-460): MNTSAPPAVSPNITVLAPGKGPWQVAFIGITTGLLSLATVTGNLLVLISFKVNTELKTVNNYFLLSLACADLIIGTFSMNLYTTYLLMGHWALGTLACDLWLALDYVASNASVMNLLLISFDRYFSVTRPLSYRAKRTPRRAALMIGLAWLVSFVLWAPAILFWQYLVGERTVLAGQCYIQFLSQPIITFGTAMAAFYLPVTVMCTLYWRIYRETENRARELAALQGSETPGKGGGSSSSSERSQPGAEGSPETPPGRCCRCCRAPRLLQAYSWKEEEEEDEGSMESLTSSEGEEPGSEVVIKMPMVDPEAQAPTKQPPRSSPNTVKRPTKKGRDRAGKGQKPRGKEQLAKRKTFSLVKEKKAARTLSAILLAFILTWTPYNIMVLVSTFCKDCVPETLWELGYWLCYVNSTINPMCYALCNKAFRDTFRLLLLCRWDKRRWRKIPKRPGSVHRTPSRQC
Experimental: Measurement of M1 Receptor Positive Allosteric Modulator (M1PAM) Activity
The activity of a test compound in the presence of acetylcholine at EC20 concentration (final concentration 0.8-1.0 nM), which affords an action corresponding to about 20% of the maximum activity, was measured as PAM activity. The method is as follows. CHO-K1 cells stably expressing a human M1 receptor (hCHRM1) were plated on a 384-well black clear bottom plate (BD Falcon) at 5,000 cells/well, and cultured in an incubator at 37° C., 5% CO2 for 1 day. The medium in the cell plate was removed, and a dye solution (prepared by adding Recording medium (DOJINDO LABORATORIES) to a final concentration of 1×concentration, Fluo-4 AM (DOJINDO LABORATORIES) to a final concentration of 2.5 μg/mL, Pluronic F127 (DOJINDO LABORATORIES) to a final concentration of 0.08%, and probenecid (DOJINDO LABORATORIES) to a final concentration of 1.25 mM to assay buffer (HBSS (Invitrogen), 20 mM HEPES (Invitrogen), 0.1% BSA (Wako Pure Chemical Industries, Ltd.))) was added at 30 μL/well. The cells were left standing in the incubator at 37° C., 5% CO2 for 30 min, and further left standing at room temperature for 30 min. A test compound prepared by diluting with assay buffer containing 3.2-4.0 nM acetylcholine was added at 10 μL/well, and the fluorescence was measured by FDSS/μ cell (Hamamatsu Photonics K.K.) for 1 min every 1 second. With the definition that the amount of change in the fluorescence on addition of acetylcholine (final concentration 1 μM) is 100% and that on addition of DMSO instead of a test compound is 0%, the activity (%) of the test compound was calculated, and the inflection point in the concentration-dependent curve of the test compound was calculated as IP values.

[2] = biological target: T1, human M1 receptor (hCHRM1); assay: Measurement of M1 receptor positive allosteric modulator (M1PAM) activity, Ca2+ fluorescence by FLIPRtetra (Experimental Example 1); assay type: cell-based
In short: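 CHO-K1 cells stably expressing hCHRM1, loaded with Fluo-4 AM (probenecid), received compound with acetylcholine at EC20 (final 0.8-1.0 nM); Ca2+ fluorescence read 1 min by FLIPRtetra. Activity scaled 0% (DMSO) to 100% (1 μM acetylcholine); IP from inflection point of concentration curve.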

Row | Structure (SMILES) | activity (%) at 10 μM [1] | EC50 [1] | activity (%) at 10 μM ([2]; 10 μM test compound, 100% = acetylcholine 1 μM, 0% = DMSO) | EC50 ([2]; inflection point of concentration-dependent curve, in presence of acetylcholine at EC20 (0.8-1.0 nM), CHO-K1 cells expressing hCHRM1, read-out: IP value)
1 | Cc1cc2c(cc1Cc1ccc(-n3cccn3)nc1)C(=O)N([C@H]1CCCC[C@@H]1O)CO2 (single isomer, unassigned) [Example 95] | 102% | 13 nM | – | –
2 | Cc1c(Cc2ccc(-n3cccn3)nc2)cc2c(c1Cl)OCN([C@H]1CCC[C@@H]1O)C2=O (single isomer, unassigned) [Example 97, 8-chloro-3-(trans-2-hydroxycyclopentyl)-7-methyl-6-((6-(1H-pyrazol-1-yl)pyridin-3-yl)methyl)-2,3-dihydro-4H-1,3-benzoxazin-4-one (optical isomer: longer retention time)] | 99% | – | – | –
3 | Cc1c(Cc2ccc(-c3ccnc(F)c3)nc2)cc2c(c1F)OCN([C@H]1CCC[C@@H]1O)C2=O [Example 89, 8-fluoro-6-((2′-fluoro-2,4′-bipyridin-5-yl)methyl)-3-((1S,2S)-2-hydroxycyclopentyl)-7-methyl-2,3-dihydro-4H-1,3-benzoxazin-4-one] | 102% | 12 nM | – | –
4 | Cc1cc(-c2ccc(Cc3cc4c(c(F)c3C)OCN([C@H]3CCC[C@@H]3O)C4=O)cn2)ccn1 [Example 90, 8-fluoro-3-((1S,2S)-2-hydroxycyclopentyl)-7-methyl-6-((2′-methyl-2,4′-bipyridin-5-yl)methyl)-2,3-dihydro-4H-1,3-benzoxazin-4-one] | 102% | 4 nM | – | –
5 | CCn1ccc(-c2ccc(Cc3cc4c(c(F)c3C)OCN([C@H]3CCC[C@@H]3O)C4=O)cn2)n1 [Example 91, 6-((6-(1-ethyl-1H-pyrazol-3-yl)pyridin-3-yl)methyl)-8-fluoro-3-((1S,2S)-2-hydroxycyclopentyl)-7-methyl-2,3-dihydro-4H-1,3-benzoxazin-4-one] | 105% | 4 nM | – | –
6 | Cc1nn(C)cc1-c1ccc(Cc2cc3c(c(F)c2C)OCN([C@H]2CCC[C@@H]2O)C3=O)cn1 [Example 93, 6-((6-(1,3-dimethyl-1H-pyrazol-4-yl)pyridin-3-yl)methyl)-8-fluoro-3-((1S,2S)-2-hydroxycyclopentyl)-7-methyl-2,3-dihydro-4H-1,3-benzoxazin-4-one] | 103% | 4.6 nM | – | –
7 | Cc1c(Cc2ccc(-n3cccn3)cc2)cc2c(c1F)OCN(CC(C)(C)O)C2=O [Example 101, 8-fluoro-3-(2-hydroxy-2-methylpropyl)-7-methyl-6-(4-(1H-pyrazol-1-yl)benzyl)-2,3-dihydro-4H-1,3-benzoxazin-4-one] | 91% | 61 nM | – | –
8 | Cc1cc2c(cc1Cc1ccc(-n3cccn3)nc1)C(=O)N([C@H]1COCC[C@@H]1O)CO2 [Example 103, 1,5-anhydro-2,4-dideoxy-2-(7-methyl-4-oxo-6-((6-(1H-pyrazol-1-yl)pyridin-3-yl)methyl)-2H-1,3-benzoxazin-3(4H)-yl)-L-threo-pentitol] | 103% | 15 nM | – | –
9 | CCc1cc2c(cc1Cc1ccc(-n3cccn3)cc1)C(=O)N([C@H]1COCC[C@@H]1O)CO2 [Example 107, 1,5-anhydro-2,4-dideoxy-2-(7-ethyl-4-oxo-6-(4-(1H-pyrazol-1-yl)benzyl)-2H-1,3-benzoxazin-3(4H)-yl)-L-threo-pentitol] | 99% | 5.5 nM | – | –

More lines, now with the values ahead:

Row | activity (%) at 10 μM [1] | EC50 [1] | activity (%) at 10 μM ([2]; 10 μM test compound, 100% = acetylcholine 1 μM, 0% = DMSO) | EC50 ([2]; inflection point of concentration-dependent curve, in presence of acetylcholine at EC20 (0.8-1.0 nM), CHO-K1 cells expressing hCHRM1, read-out: IP value) | Structure (SMILES)
10 | 101% | 3.4 nM | – | – | Cc1c(Cc2ccc(-c3ccn(C)n3)nc2)cc2c(c1F)OCN([C@H]1CCCC[C@@H]1O)C2=O [Example 92, 8-fluoro-3-((1S,2S)-2-hydroxycyclohexyl)-7-methyl-6-((6-(1-methyl-1H-pyrazol-3-yl)pyridin-3-yl)methyl)-2,3-dihydro-4H-1,3-benzoxazin-4-one]
11 | 103% | 4.9 nM | – | – | Cc1c(Cc2ccc(-n3cccn3)nc2)cc2c(c1C)OCN([C@H]1COCC[C@@H]1O)C2=O [Example 98, 1,5-anhydro-2,4-dideoxy-2-(7,8-dimethyl-4-oxo-6-((6-(1H-pyrazol-1-yl)pyridin-3-yl)methyl)-2H-1,3-benzoxazin-3(4H)-yl)-L-threo-pentitol]
12 | 97% | 2.9 nM | – | – | Cc1c(Cc2ccc(-c3ccn(C)n3)nc2)cc2c(c1Cl)OCN([C@H]1CCC[C@@H]1O)C2=O [Example 99, 8-chloro-3-((1S,2S)-2-hydroxycyclopentyl)-7-methyl-6-((6-(1-methyl-1H-pyrazol-3-yl)pyridin-3-yl)methyl)-2,3-dihydro-4H-1,3-benzoxazin-4-one]
13 | 99% | 4.4 nM | – | – | Cc1c(Cc2ccc(-c3ccn(C)n3)cc2)cc2c(c1C)OCN([C@H]1COCC[C@@H]1O)C2=O [Example 100, 1,5-anhydro-2,4-dideoxy-2-(7,8-dimethyl-6-(4-(1-methyl-1H-pyrazol-3-yl)benzyl)-4-oxo-2H-1,3-benzoxazin-3(4H)-yl)-L-threo-pentitol]
14 | 98% | 8.7 nM | – | – | Cc1c(Cc2ccc(-n3cccn3)nc2)cc2c(c1F)OCN([C@H]1COCC[C@@H]1O)C2=O [Example 102, 1,5-anhydro-2,4-dideoxy-2-(8-fluoro-7-methyl-4-oxo-6-((6-(1H-pyrazol-1-yl)pyridin-3-yl)methyl)-2H-1,3-benzoxazin-3(4H)-yl)-L-threo-pentitol]
15 | 98% | 5.6 nM | – | – | Cc1cc(-c2ccc(Cc3cc4c(c(F)c3C)OCN([C@H]3CCC[C@@H]3O)C4=O)cc2)cnn1 [Example 105, 8-fluoro-3-((1S,2S)-2-hydroxycyclopentyl)-7-methyl-6-(4-(6-methylpyridazin-4-yl)benzyl)-2,3-dihydro-4H-1,3-benzoxazin-4-one hydrochloride]
16 | 113% | 6.9 nM | – | – | Cc1c(Cc2ccc(-n3cccn3)nc2)cc2c(c1Cl)OCN([C@H]1COCC[C@@H]1O)C2=O [Example 106, 1,5-anhydro-2-(8-chloro-7-methyl-4-oxo-6-((6-(1H-pyrazol-1-yl)pyridin-3-yl)methyl)-2H-1,3-benzoxazin-3(4H)-yl)-2,4-dideoxy-L-threo-pentitol]
17 | 99% | 5.3 nM | – | – | Cc1c(Cc2ccc(-c3ccn(C)n3)cc2)cc2c(c1F)OCN([C@H]1COCC[C@@H]1O)C2=O [Example 108, 1,5-anhydro-2,4-dideoxy-2-(8-fluoro-7-methyl-6-(4-(1-methyl-1H-pyrazol-3-yl)benzyl)-4-oxo-2H-1,3-benzoxazin-3(4H)-yl)-L-threo-pentitol]
18 | 97% | 5.7 nM | – | – | COc1ccc(Cc2cc3c(c(Cl)c2C)OCN([C@H]2COCC[C@@H]2O)C3=O)cn1 [Example 109, 1,5-anhydro-2-(8-chloro-6-((6-methoxypyridin-3-yl)methyl)-7-methyl-4-oxo-2H-1,3-benzoxazin-3(4H)-yl)-2,4-dideoxy-L-threo-pentitol]
19 | – | – | 104% | 14 nM | Cc1ccc(Cc2cc3c(c(C)c2C)OCN([C@H]2COCC[C@@H]2O)C3=O)cn1 [Example 137, 1,5-anhydro-2,4-dideoxy-2-(7,8-dimethyl-6-((6-methylpyridin-3-yl)methyl)-4-oxo-2H-1,3-benzoxazin-3(4H)-yl)-L-threo-pentitol]
